Target: Tyrosine-protein phosphatase non-receptor type 7 (Homo sapiens) (UniProt P35236)
Assay: HePTP (PTPN7) phosphatase inhibitor potency, SAR follow-up, biochemical, set 3 (AID 488889)
Conditions: recombinant HePTP phosphatase activity assay

Sequence of Tyrosine-protein phosphatase non-receptor type 7 (Homo sapiens) (P35236 whole entry, looked up): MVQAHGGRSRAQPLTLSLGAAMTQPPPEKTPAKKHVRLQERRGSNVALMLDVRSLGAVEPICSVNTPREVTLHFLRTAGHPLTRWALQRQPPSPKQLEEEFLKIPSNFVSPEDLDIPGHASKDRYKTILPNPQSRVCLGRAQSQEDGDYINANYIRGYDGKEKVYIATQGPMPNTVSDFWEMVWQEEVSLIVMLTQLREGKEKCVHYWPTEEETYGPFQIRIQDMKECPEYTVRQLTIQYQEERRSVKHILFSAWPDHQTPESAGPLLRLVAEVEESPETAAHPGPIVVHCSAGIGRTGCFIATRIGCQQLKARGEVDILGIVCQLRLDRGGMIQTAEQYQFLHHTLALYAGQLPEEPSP

Structure (SMILES) | IC50
CCOC(=O)COc1ccc(/C=N/NC(=O)c2ccc(-c3csc(Nc4ccc(Cl)cc4)n3)cc2)cc1 | 10.2 µM
O=C(O)COc1ccc(/C=N/NC(=O)c2ccc(-c3csc(Nc4ccc(Cl)cc4)n3)cc2)cc1 | < 0.195 µM
